Data reported in BindingDB's records for doi:10.1124/jpet.102.047092 (Case Western Reserve University, 2003).

Tests used:
[1] = target: Sodium-dependent noradrenaline transporter (Homo sapiens, UniProt P23975)
[2] = target: Sodium-dependent dopamine transporter (Homo sapiens, UniProt Q01959)
[3] = target: T1, Muscarinic acetylcholine receptor M1 (Homo sapiens, UniProt P11229)
T1 sequence (P11229 whole entry): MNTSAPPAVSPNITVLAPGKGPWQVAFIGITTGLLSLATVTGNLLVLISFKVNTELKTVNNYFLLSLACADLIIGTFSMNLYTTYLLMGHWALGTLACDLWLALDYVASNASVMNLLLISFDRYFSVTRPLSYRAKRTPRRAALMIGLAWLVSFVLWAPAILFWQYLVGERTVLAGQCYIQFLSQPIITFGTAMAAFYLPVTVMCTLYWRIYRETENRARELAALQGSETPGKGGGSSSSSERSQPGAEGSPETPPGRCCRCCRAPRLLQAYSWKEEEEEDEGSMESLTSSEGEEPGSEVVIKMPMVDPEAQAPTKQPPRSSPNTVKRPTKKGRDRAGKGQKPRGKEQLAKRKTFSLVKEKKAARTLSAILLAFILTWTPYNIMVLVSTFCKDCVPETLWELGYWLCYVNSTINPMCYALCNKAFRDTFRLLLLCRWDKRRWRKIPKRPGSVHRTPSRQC

D(1B) dopamine receptor = D(1B) dopamine receptor (Homo sapiens, UniProt P21918)
D(1A) dopamine receptor = D(1A) dopamine receptor (Homo sapiens, UniProt P21728)
[4] = target: T2, Alpha-1B adrenergic receptor (Homo sapiens, UniProt P35368)
T2 sequence (P35368 whole entry): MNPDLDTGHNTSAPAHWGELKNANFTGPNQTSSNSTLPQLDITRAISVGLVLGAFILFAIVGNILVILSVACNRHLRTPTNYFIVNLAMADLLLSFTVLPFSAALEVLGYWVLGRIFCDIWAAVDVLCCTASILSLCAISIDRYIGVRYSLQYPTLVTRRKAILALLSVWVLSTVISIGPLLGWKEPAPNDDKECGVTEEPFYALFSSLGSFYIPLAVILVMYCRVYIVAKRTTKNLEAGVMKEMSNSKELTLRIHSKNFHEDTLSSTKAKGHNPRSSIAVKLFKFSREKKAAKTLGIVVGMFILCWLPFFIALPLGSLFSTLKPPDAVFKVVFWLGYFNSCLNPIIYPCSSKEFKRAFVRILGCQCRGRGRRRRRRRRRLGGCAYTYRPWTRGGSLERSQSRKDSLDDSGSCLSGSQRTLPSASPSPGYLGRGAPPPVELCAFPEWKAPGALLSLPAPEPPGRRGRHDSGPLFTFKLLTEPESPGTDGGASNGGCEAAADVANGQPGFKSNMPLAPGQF

[5] = target: Beta-2 adrenergic receptor (Rattus norvegicus, UniProt P10608)
[6] = target: 5-hydroxytryptamine receptor 5A (Homo sapiens, UniProt P47898)
[7] = target: Gamma-aminobutyric acid receptor subunit alpha-1 (Rattus norvegicus, UniProt P62813)
[8] = target: Kappa-type opioid receptor (Cavia porcellus, UniProt P41144)
[9] = target: Muscarinic acetylcholine receptor M3 (Homo sapiens, UniProt P20309)
[10] = target: T3, Muscarinic acetylcholine receptor M2 (Homo sapiens, UniProt P08172)
T3 sequence (P08172 whole entry): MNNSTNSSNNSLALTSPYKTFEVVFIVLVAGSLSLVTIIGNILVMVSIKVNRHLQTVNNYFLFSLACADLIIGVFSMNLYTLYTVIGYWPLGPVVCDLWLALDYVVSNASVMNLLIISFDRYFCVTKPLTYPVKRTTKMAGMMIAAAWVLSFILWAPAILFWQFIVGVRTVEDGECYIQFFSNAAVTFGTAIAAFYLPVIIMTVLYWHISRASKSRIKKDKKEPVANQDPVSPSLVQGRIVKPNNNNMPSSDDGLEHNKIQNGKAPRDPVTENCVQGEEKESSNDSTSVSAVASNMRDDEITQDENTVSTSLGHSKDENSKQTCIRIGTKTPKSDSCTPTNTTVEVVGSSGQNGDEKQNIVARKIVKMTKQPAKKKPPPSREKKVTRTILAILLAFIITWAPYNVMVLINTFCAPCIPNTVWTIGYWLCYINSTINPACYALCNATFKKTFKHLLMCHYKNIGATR

[11] = target: T4, Alpha-1A adrenergic receptor (Homo sapiens, UniProt P35348)
T4 sequence (P35348 whole entry): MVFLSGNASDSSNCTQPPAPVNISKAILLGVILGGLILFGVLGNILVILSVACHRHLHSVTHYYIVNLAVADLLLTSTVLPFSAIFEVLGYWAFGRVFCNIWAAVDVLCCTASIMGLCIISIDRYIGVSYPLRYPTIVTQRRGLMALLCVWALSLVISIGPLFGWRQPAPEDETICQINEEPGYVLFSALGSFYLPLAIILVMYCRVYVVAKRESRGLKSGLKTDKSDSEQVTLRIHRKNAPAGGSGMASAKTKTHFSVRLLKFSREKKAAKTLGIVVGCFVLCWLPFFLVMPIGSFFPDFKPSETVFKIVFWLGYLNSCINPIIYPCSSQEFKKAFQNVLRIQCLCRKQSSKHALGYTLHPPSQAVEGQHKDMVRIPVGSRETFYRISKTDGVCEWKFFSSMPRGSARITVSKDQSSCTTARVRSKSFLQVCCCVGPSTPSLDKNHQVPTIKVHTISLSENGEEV

[12] = target: 5-hydroxytryptamine receptor 7 (Homo sapiens, UniProt P34969)

Measured: Ki

Chain of Beta-2 adrenergic receptor (P10608 whole entry): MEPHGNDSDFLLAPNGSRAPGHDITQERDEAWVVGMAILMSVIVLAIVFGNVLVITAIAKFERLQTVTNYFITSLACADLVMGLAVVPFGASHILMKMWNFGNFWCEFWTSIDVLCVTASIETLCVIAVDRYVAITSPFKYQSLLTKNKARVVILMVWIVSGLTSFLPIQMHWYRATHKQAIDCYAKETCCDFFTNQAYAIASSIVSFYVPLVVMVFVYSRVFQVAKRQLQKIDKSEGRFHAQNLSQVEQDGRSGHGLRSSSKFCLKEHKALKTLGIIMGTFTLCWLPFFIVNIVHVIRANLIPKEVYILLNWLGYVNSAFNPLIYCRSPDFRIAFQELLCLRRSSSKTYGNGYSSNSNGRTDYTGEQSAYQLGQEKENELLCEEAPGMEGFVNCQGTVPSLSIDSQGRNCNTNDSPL
Chain of D(1B) dopamine receptor (P21918 whole entry): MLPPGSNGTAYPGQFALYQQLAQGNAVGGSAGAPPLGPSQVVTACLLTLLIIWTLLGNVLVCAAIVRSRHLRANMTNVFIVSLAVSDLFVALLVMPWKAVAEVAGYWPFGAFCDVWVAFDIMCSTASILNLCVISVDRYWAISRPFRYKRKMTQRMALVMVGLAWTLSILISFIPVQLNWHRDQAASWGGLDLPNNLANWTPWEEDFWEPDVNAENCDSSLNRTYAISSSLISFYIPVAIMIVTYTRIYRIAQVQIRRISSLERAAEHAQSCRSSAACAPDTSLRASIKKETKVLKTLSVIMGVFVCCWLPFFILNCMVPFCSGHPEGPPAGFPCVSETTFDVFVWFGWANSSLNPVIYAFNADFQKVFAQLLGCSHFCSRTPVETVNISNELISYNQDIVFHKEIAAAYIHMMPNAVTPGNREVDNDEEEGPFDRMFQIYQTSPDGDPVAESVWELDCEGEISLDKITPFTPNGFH
Chain of D(1A) dopamine receptor (P21728 whole entry): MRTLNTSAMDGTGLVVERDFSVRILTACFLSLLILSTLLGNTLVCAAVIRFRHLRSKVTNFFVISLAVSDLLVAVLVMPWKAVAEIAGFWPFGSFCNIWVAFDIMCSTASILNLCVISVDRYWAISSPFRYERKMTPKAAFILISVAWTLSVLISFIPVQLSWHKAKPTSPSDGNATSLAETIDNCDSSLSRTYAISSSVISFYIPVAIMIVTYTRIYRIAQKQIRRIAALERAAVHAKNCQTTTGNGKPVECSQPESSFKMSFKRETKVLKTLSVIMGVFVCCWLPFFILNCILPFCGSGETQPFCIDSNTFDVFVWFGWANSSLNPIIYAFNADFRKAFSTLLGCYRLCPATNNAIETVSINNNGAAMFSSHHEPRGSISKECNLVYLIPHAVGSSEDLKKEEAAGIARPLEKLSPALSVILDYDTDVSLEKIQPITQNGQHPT
Chain of Gamma-aminobutyric acid receptor subunit alpha-1 (P62813 whole entry): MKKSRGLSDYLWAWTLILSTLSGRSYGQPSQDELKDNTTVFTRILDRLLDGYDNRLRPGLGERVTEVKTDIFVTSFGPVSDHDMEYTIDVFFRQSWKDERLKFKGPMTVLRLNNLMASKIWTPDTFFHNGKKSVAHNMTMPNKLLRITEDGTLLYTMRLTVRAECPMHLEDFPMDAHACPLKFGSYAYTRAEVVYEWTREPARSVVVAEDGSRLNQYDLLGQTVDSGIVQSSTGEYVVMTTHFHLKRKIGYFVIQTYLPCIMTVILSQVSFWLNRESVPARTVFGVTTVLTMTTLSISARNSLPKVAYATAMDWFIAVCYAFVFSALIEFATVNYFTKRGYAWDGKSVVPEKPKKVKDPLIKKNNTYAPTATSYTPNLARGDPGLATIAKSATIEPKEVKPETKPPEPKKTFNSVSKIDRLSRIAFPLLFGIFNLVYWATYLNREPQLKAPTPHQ
Chain of Sodium-dependent dopamine transporter (Q01959 whole entry): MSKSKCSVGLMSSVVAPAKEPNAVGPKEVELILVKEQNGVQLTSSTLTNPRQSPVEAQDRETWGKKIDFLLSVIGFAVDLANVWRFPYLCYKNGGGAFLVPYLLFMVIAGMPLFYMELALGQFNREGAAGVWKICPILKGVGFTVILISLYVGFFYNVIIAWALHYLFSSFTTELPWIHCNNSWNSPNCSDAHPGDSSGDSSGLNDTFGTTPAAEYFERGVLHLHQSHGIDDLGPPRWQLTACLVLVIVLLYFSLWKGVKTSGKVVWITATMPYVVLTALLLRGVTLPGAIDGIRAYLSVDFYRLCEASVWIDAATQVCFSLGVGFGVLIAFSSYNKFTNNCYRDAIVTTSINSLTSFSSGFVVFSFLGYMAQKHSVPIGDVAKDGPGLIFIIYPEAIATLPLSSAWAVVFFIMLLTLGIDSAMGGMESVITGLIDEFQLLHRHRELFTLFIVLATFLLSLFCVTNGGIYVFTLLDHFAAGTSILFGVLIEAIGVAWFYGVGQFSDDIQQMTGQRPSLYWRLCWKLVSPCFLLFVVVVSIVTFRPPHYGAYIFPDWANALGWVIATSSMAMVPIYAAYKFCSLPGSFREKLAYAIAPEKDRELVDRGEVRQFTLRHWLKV
Chain of Kappa-type opioid receptor (P41144 whole entry): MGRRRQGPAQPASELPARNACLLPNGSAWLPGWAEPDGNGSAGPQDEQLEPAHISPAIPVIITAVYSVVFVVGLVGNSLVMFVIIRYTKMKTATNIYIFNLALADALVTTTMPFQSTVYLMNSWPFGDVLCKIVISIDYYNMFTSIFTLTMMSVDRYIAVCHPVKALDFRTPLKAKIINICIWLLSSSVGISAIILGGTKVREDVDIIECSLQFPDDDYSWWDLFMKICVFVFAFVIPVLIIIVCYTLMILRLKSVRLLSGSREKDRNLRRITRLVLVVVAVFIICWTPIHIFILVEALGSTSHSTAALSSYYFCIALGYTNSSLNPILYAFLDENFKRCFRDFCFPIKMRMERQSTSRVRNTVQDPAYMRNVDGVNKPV
Chain of 5-hydroxytryptamine receptor 5A (P47898 whole entry): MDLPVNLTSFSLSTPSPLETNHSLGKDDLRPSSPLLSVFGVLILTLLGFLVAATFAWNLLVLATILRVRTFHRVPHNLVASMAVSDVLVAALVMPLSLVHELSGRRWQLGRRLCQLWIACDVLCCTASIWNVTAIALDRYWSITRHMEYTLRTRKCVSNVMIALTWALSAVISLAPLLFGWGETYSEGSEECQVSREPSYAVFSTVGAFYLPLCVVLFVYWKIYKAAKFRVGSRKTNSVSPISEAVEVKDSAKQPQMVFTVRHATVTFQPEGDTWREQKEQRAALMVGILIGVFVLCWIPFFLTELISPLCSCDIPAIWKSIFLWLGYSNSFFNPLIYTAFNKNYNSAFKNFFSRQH
Chain of Muscarinic acetylcholine receptor M3 (P20309 whole entry): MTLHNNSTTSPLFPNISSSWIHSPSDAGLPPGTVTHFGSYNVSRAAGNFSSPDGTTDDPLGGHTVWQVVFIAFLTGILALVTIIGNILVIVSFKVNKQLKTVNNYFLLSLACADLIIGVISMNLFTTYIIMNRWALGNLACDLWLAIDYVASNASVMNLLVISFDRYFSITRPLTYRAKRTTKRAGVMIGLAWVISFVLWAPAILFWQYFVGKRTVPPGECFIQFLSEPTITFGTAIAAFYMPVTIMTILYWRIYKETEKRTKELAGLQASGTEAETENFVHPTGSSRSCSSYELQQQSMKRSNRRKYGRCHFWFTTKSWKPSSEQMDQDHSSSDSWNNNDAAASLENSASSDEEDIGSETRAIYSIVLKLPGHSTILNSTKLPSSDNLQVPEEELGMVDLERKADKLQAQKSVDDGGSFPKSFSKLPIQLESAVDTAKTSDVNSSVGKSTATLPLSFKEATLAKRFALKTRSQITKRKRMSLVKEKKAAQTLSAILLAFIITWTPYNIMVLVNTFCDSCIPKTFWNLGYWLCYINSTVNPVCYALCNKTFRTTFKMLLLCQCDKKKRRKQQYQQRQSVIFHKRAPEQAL
Chain of 5-hydroxytryptamine receptor 7 (P34969 whole entry): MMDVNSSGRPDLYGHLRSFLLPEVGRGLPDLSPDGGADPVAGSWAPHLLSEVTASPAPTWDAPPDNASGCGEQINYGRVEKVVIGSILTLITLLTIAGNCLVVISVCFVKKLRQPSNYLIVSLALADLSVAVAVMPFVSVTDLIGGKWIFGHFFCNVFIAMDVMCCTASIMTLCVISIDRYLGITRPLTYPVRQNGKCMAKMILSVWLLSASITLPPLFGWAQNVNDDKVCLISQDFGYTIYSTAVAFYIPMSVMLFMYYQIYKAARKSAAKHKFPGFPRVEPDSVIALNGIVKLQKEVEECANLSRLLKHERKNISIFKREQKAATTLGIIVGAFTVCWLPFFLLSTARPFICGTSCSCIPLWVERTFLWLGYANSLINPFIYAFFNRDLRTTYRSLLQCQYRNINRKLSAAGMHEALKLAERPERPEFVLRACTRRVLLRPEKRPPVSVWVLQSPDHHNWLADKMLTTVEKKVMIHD
Chain of Sodium-dependent noradrenaline transporter (P23975 whole entry): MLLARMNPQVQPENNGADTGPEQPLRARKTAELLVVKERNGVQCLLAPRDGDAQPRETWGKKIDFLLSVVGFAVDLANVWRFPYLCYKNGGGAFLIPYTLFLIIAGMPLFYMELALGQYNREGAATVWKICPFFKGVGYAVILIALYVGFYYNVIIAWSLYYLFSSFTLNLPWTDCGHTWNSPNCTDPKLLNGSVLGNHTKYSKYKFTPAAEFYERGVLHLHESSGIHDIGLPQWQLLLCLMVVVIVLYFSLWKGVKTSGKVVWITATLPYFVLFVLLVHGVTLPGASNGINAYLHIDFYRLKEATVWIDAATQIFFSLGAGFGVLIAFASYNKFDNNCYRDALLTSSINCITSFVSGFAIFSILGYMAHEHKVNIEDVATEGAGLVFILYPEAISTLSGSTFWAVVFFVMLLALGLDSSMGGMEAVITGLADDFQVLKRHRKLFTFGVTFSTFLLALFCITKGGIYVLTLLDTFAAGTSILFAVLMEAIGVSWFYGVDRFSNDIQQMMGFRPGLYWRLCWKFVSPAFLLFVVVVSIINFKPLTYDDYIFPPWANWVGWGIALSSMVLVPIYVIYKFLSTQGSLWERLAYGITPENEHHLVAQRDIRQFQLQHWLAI

N[C@@H](CCS(=O)(=O)O)C(=O)O (racemic)
> 10 µM: [1] | [2] | [3] | D(1B) dopamine receptor | D(1A) dopamine receptor | [4] | [5] | [6] | [7] | [8] | [9] | [10] | [11] | [12]

N[C@@H](CCS)C(=O)O (racemic) [CAS_778]
> 10 µM: [1] | [2] | [3] | D(1B) dopamine receptor | D(1A) dopamine receptor | [4] | [5] | [6] | [7] | [8] | [9] | [10] | [11] | [12]

NC(CS(=O)O)C(=O)O (stereo not drawn) [CAS_109]
> 10 µM: [1] | [2] | [3] | D(1B) dopamine receptor | D(1A) dopamine receptor | [4] | [5] | [6] | [7] | [8] | [9] | [10] | [11] | [12]

NC(CSSCC(N)C(=O)O)C(=O)O (stereo not drawn) [CAS_595]
> 10 µM: [1] | [2] | [3] | D(1B) dopamine receptor | D(1A) dopamine receptor | [4] | [5] | [6] | [7] | [8] | [9] | [10] | [11] | [12]

N[C@@H](CS)C(=O)O [CAS_5862]
> 10 µM: [1] | [2] | [3] | D(1B) dopamine receptor | D(1A) dopamine receptor | [4] | [5] | [6] | [7] | [8] | [9] | [10] | [11] | [12]

CSCC[C@@H](N)C(=O)O [CAS_6137]
> 10 µM: [1] | [2] | [3] | D(1B) dopamine receptor | D(1A) dopamine receptor | [4] | [5] | [6] | [7] | [8] | [9] | [10] | [11] | [12]

N[C@H](CCS(=O)(=O)O)C(=O)O [D-homocysteic acid]
> 10 µM: [1] | [2] | [3] | D(1B) dopamine receptor | D(1A) dopamine receptor | [4] | [5] | [6] | [7] | [8] | [9] | [10] | [11] | [12]

N[C@H](CCS(=O)O)C(=O)O [D-homocysteine sulfinic acid]
> 10 µM: [1] | [2] | [3] | D(1B) dopamine receptor | D(1A) dopamine receptor | [4] | [5] | [6] | [7] | [8] | [9] | [10] | [11] | [12]

N[C@@H]1CCSC1=O [D-homocysteine thiolactone]
> 10 µM: [1] | [2] | [3] | D(1B) dopamine receptor | D(1A) dopamine receptor | [4] | [5] | [6] | [7] | [8] | [9] | [10] | [11] | [12]

N[C@H](CS(=O)(=O)O)C(=O)O [L-cysteic acid]
> 10 µM: [1] | [2] | [3] | D(1B) dopamine receptor | D(1A) dopamine receptor | [4] | [5] | [6] | [7] | [8] | [9] | [10] | [11] | [12]

N[C@@H](CCS(=O)O)C(=O)O [L-homocysteine sulfinic acid]
> 10 µM: [1] | [2] | [3] | D(1B) dopamine receptor | D(1A) dopamine receptor | [4] | [5] | [6] | [7] | [8] | [9] | [10] | [11] | [12]

N[C@H]1CCSC1=O [NSC_134505]
> 10 µM: [1] | [2] | [3] | D(1B) dopamine receptor | D(1A) dopamine receptor | [4] | [5] | [6] | [7] | [8] | [9] | [10] | [11] | [12]
